According to patent US12453709B2, “Compositions and methods for treating autism” (priority 2013, dated 2025):

Test system: symptoms of leaky gut
Experiment: Preliminary testing: effect on symptoms of leaky gut
Type: in vivo
From the text: This may be due to the failure of the D amino acid isomer to be transported by the different L amino acid transport systems that exist within the body, or by completion for renal excretion that allows the L isomer to persist for a longer duration.

Structure (SMILES): C[C@](N)(Cc1ccc(O)cc1)C(=O)O (single isomer, unassigned) [Demser, α-methyl-L-tyrosine]
- duration of effect on leaky gut symptoms: short lived
- effect on the symptoms of leaky gut: beneficial effect
